≈ marks a conversion by molar mass, not a printed value.
Key:
Assay in all cases: ≥ marks a high value that may be exact or a test limit, other limits are often not marked, values filed in µg/mL are converted to µM
[1] = tested on: Staphylococcus aureus ATCC 25923
[2] = tested on: Escherichia coli ATCC 25922
[3] = tested on: Pseudomonas aeruginosa ATCC 27853
Escherichia coli = tested on: Escherichia coli
Staphylococcus aureus = tested on: Staphylococcus aureus

Row | Structure (SMILES) | MIC [1] [µM] | MIC [2] [µM] | MIC [3] [µM] | MIC (Escherichia coli) [µM] | MIC (Staphylococcus aureus) [µM]
1 | CC(C)[C@H](NC(=O)[C@H](Cc1ccc(O)cc1)NC(=O)[C@H](CO)NC(=O)[C@H](CCCCN)NC(=O)[C@@H](N)CCCCN)C(=O)N[C@@H](CCCN=C(N)N)C(=O)N[C@@H](CCCN=C(N)N)C(=O)N[C@@H](Cc1c[nH]c2ccccc12)C(=O)N[C@@H](CCCN=C(N)N)C(=O)N[C@@H](CO)C(N)=O [KKSYVRRWRS] | > 100 | > 100 | > 100 | – | –
2 | CC[C@H](C)[C@H](NC(=O)[C@H](CCCN=C(N)N)NC(=O)[C@H](CCCCN)NC(=O)[C@@H](N)CC(C)C)C(=O)N[C@@H](CCCCN)C(=O)N[C@H](C(=O)N[C@@H](CC(C)C)C(=O)N[C@@H](CC(C)C)C(N)=O)[C@@H](C)O [LKRIKTLL] | > 31.5 | > 31.5 | – | – | –
3 | CC[C@H](C)[C@H](NC(=O)[C@@H](NC(=O)[C@H](CCCCN)NC(=O)[C@H](CC(C)C)NC(=O)[C@H](CC(C)C)NC(=O)CN)C(C)C)C(=O)N[C@@H](CCCCN)C(=O)N[C@H](C(=O)N[C@@H](CC(C)C)C(=O)N[C@@H](CC(C)C)C(N)=O)C(C)C [GLLKVIKVLL] | 12.8 (≈ 14 µg/mL) | 25.6 (≈ 28 µg/mL) | – | – | –
4 | CC(C)C[C@H](NC(=O)[C@H](C)NC(=O)[C@@H](N)CO)C(=O)N[C@H](C(=O)NCC(=O)N[C@H]1CSSC[C@@H](C(=O)N[C@@H](Cc2ccccc2)C(=O)NCC(=O)N[C@@H](CCCN=C(N)N)C(=O)NCC(=O)O)NC(=O)[C@@H]2CCCN2C(=O)[C@H](CCCCN)NC(=O)[C@@H]2CCCN2C(=O)[C@@H]2CCCN2C(=O)[C@H](Cc2c[nH]c3ccccc23)NC(=O)[C@H](CO)NC(=O)[C@H](CCCCN)NC(=O)[C@H]([C@@H](C)O)NC(=O)[C@H](Cc2c[nH]c3ccccc23)NC1=O)C(C)C [SALVGCWTKSWPPKPCFGRG] | 23 (≈ 50 µg/mL) | – | – | – | –
5 | CC(C)[C@H](NC(=O)[C@H](Cc1ccc(O)cc1)NC(=O)[C@H](CO)NC(=O)[C@H](CCCCN)NC(=O)[C@@H](N)Cc1c[nH]c2ccccc12)C(=O)N[C@@H](CCCN=C(N)N)C(=O)N[C@@H](CCCN=C(N)N)C(=O)N[C@@H](Cc1c[nH]c2ccccc12)C(N)=O [WKSYVRRW] | 100 (≈ 118 µg/mL) | 64 (≈ 75.5 µg/mL) | > 100 | – | –
6 | CC(C)C[C@H](NC(=O)[C@H](Cc1ccccc1)NC(=O)[C@@H]1CCCN1C(=O)[C@H](Cc1c[nH]c2ccccc12)NC(=O)[C@H](C)NC(=O)[C@H](Cc1c[nH]c2ccccc12)NC(=O)[C@@H]1CCCN1C(=O)[C@H](Cc1ccccc1)NC(=O)[C@H](CCCN=C(N)N)NC(=O)[C@H](CCCN=C(N)N)NC(=O)[C@@H](N)C(C)C)C(=O)N[C@@H](CCCN=C(N)N)C(=O)N[C@@H](CCCN=C(N)N)C(N)=O [VRRFPWAWPFLRR] | – | 16 (≈ 28.6 µg/mL) | – | – | –
7 | CC(C)C[C@H](NC(=O)[C@H](C)NC(=O)[C@@H](N)CO)C(=O)N[C@H](C(=O)NCC(=O)N[C@H]1CSSC[C@@H](C(=O)N[C@@H](Cc2ccccc2)C(=O)NCC(=O)N[C@@H](CCCN=C(N)N)C(=O)O)NC(=O)[C@@H]2CCCN2C(=O)[C@H](CCCCN)NC(=O)[C@@H]2CCCN2C(=O)[C@@H]2CCCN2C(=O)[C@H](Cc2c[nH]c3ccccc23)NC(=O)[C@H](CO)NC(=O)[C@H](CCCCN)NC(=O)[C@H]([C@@H](C)O)NC(=O)[C@H](Cc2c[nH]c3ccccc23)NC1=O)C(C)C [SALVGCWTKSWPPKPCFGR] | 11.8 (≈ 25 µg/mL) | 23.6 (≈ 50 µg/mL) | – | – | –

Now from value to compound:

Row | MIC [1] [µM] | MIC [2] [µM] | MIC [3] [µM] | MIC (Escherichia coli) [µM] | MIC (Staphylococcus aureus) [µM] | Structure (SMILES)
8 | 30 (≈ 98.6 µg/mL) | 30 (≈ 98.6 µg/mL) | – | – | – | CC(C)C[C@H](NC(=O)CN)C(=O)N[C@@H](Cc1ccccc1)C(=O)N[C@@H](CC(=O)O)C(=O)N[C@H](C(=O)N[C@H](C(=O)N[C@@H](CCCCN)C(=O)NCC(=O)N[C@H](C(=O)N[C@@H](CC(C)C)C(=O)N[C@@H](CCCCN)C(=O)NCC(=O)N[C@@H](C)C(=O)NCC(=O)N[C@@H](CCCCN)C(=O)N[C@@H](CC(N)=O)C(=O)N[C@H](C(=O)N[C@@H](C)C(=O)NCC(=O)N[C@@H](CO)C(=O)N[C@@H](CC(C)C)C(=O)N[C@@H](CC(C)C)C(=O)N[C@@H](CCC(=O)O)C(=O)N[C@@H](CCC(N)=O)C(=O)N[C@@H](CC(C)C)C(=O)N[C@@H](CCCCN)C(=O)N[C@H]1CSSC[C@@H](C(=O)O)NC(=O)CNC(=O)CNC(=O)[C@H](CO)NC(=O)[C@H](CC(C)C)NC(=O)[C@H](CCCCN)NC1=O)C(C)C)C(C)C)C(C)C)C(C)C [GLFDVVKGVLKGAGKNVAGSLLEQLKCKLSGGC]
9 | – | – | 32 (≈ 102 µg/mL) | – | – | CC[C@H](C)[C@H](NC(=O)CNC(=O)[C@H](CCC(N)=O)NC(=O)CNC(=O)[C@H](Cc1c[nH]c2ccccc12)NC(=O)[C@H](CCCCN)NC(=O)[C@H](CCC(=O)O)NC(=O)[C@@H](NC(=O)[C@H](CCCCN)NC(=O)[C@H](CCCCN)NC(=O)[C@H](Cc1c[nH]c2ccccc12)NC(=O)[C@H](CC(C)C)NC(=O)[C@H](CCCCN)NC(=O)[C@H](Cc1c[nH]c2ccccc12)NC(=O)[C@@H](N)CCCCN)[C@@H](C)CC)C(=O)NCC(=O)N[C@@H](C)C(=O)N[C@H](C(=O)N[C@@H](CC(C)C)C(=O)N[C@@H](CCCCN)C(=O)N[C@@H](Cc1c[nH]c2ccccc12)C(=O)N[C@@H](CC(C)C)C(=O)N[C@H](C(=O)N[C@H](C(=O)N[C@@H](Cc1c[nH]c2ccccc12)C(=O)N[C@@H](CC(C)C)C(=O)O)[C@@H](C)O)[C@@H](C)O)C(C)C [KWKLWKKIEKWGQGIGAVLKWLTTWL]
10 | – | > 100 | > 100 | – | – | CC[C@H](C)[C@H](NC(=O)[C@H](Cc1ccc(O)cc1)NC(=O)[C@H](CCC(N)=O)NC(=O)[C@H](CC(C)C)NC(=O)[C@H](C)N)C(=O)N[C@@H](CCCCN)C(=O)N[C@@H](CC(C)C)C(=O)N[C@@H](CC(C)C)C(=O)N[C@@H](CCCCN)C(=O)N[C@@H](CCC(=O)O)C(N)=O [ALQYIKLLKE]
11 | 64 (≈ 146 µg/mL) | 64 (≈ 146 µg/mL) | – | – | – | CC[C@H](C)[C@H](NC(=O)[C@H](CCC(N)=O)NC(=O)[C@H](CCCCN)NC(=O)[C@@H](NC(=O)[C@H](CC(C)C)NC(=O)[C@H](CCC(N)=O)NC(=O)[C@H](C)NC(=O)[C@H](Cc1ccccc1)NC(=O)[C@@H](NC(=O)[C@H](CC(=O)O)NC(=O)[C@H](CCCCN)NC(=O)CNC(=O)[C@@H](NC(=O)CNC(=O)[C@@H](NC(=O)[C@@H](NC(=O)[C@H](Cc1ccccc1)NC(=O)[C@H](CC(=O)O)NC(=O)[C@H](CC(C)C)NC(=O)[C@H](CC(C)C)NC(=O)CN)C(C)C)[C@@H](C)O)C(C)C)[C@@H](C)CC)[C@@H](C)CC)C(N)=O [GLLDFVTGVGKDIFAQLIKQI]
12 | – | – | – | 25 (≈ 65.4 µg/mL) | 6 (≈ 15.7 µg/mL) | CC[C@H](C)[C@H](NC(=O)[C@H](CCCCN)NC(=O)[C@H](CC(C)C)NC(=O)[C@H](C)NC(=O)[C@H](C)NC(=O)[C@H](CCCCN)NC(=O)[C@H](CC(C)C)NC(=O)[C@H](C)NC(=O)[C@H](CCCCN)NC(=O)CNC(=O)[C@H](CC(C)C)NC(=O)[C@H](Cc1ccccc1)NC(=O)[C@H](CO)NC(=O)CNC(=O)[C@H](Cc1ccccc1)NC(=O)CN)C(=O)NCC(=O)N[C@@H](C)C(=O)N[C@@H](CC(N)=O)C(=O)N[C@H](C(=O)N[C@@H](CC(C)C)C(=O)NCC(=O)NCC(=O)N[C@@H](C)C(=O)N1CCC[C@H]1C(=O)N[C@@H](CCC(=O)O)C(=O)N[C@@H](CCC(N)=O)C(=O)O)C(C)C [GFGSFLGKALKAALKIGANVLGGAPEQ]
13 | > 160 | 80 (≈ 251 µg/mL) | – | – | – | CC[C@H](C)[C@H](NC(=O)[C@@H](NC(=O)[C@H](CC(N)=O)NC(=O)[C@H](CC(C)C)NC(=O)[C@H](CC(C)C)NC(=O)CN)C(C)C)C(=O)N[C@@H](CCCCN)C(=O)N[C@@H](CC(=O)O)C(=O)N[C@H](C(=O)N[C@@H](C)C(=O)N[C@@H](CCC(N)=O)C(=O)N[C@@H](CC(N)=O)C(=O)N[C@@H](CC(C)C)C(=O)N[C@@H](Cc1ccccc1)C(=O)N[C@@H](C)C(=O)N[C@@H](C)C(=O)N[C@@H](C)C(=O)N[C@@H](CC(C)C)C(=O)N[C@@H](CC(=O)O)C(=O)N[C@@H](CCCCN)C(=O)N[C@@H](CC(C)C)C(=O)N[C@@H](CCCCN)C(=O)N[C@H]1CSSC[C@@H](C(=O)N[C@@H](CC(N)=O)C(=O)O)NC(=O)[C@H](CCCCN)NC(=O)[C@H]([C@@H](C)O)NC(=O)[C@H](C(C)C)NC(=O)[C@H](CCCCN)NC1=O)[C@@H](C)O [GLLNVIKDTAQNLFAAALDKLKCKVTKCN]
14 | – | – | – | 50 (≈ 76.9 µg/mL) | 12.5 (≈ 19.2 µg/mL) | CC[C@H](C)[C@H](NC(=O)CN)C(=O)NCC(=O)N[C@@H](CO)C(=O)N[C@@H](C)C(=O)N[C@@H](CC(C)C)C(=O)N[C@@H](C)C(=O)N[C@@H](CCCCN)C(=O)N[C@@H](C)C(=O)N[C@@H](C)C(=O)N[C@@H](CCCCN)C(=O)N[C@@H](CC(C)C)C(=O)N[C@H](C(=O)N[C@@H](C)C(=O)NCC(=O)N[C@H](C(=O)N[C@H](C(N)=O)C(C)C)[C@@H](C)CC)C(C)C [GIGSALAKAAKLVAGIV]
15 | 7.53 (≈ 8.99 µg/mL) | 5.02 (≈ 6 µg/mL) | – | – | – | CC[C@H](C)[C@H](NC(=O)[C@@H](NC(=O)[C@H](CCCCN)NC(=O)[C@H](CC(C)C)NC(=O)[C@H](CC(C)C)NC(=O)[C@@H](N)CCCCN)C(C)C)C(=O)N[C@@H](CCCCN)C(=O)N[C@@H](CCCCN)C(=O)N[C@@H](CC(C)C)C(=O)N[C@@H](CC(C)C)C(N)=O [KLLKVIKKLL]
16 | 4 (≈ 9.1 µg/mL) | 4 (≈ 9.1 µg/mL) | 4 (≈ 9.1 µg/mL) | – | – | CC(C)C[C@H](NC(=O)[C@H](CCCCN)NC(=O)[C@H](CCCCN)NC(=O)[C@H](C)NC(=O)[C@H](CC(C)C)NC(=O)[C@H](CCCCN)NC(=O)[C@H](C)NC(=O)[C@H](CC(C)C)NC(=O)[C@H](CCCCN)NC(=O)[C@H](CCCCN)NC(=O)[C@H](C)NC(=O)[C@H](CC(C)C)NC(=O)[C@H](CCCCN)NC(=O)[C@H](C)NC(=O)[C@H](CC(C)C)NC(=O)[C@H](CCCCN)NC(=O)[C@H](CCCCN)NC(=O)[C@H](C)NC(=O)[C@H](CC(C)C)NC(=O)[C@@H](N)CCCCN)C(=O)N[C@@H](C)C(N)=O [KLAKKLAKLAKKLAKLAKKLA]
17 | – | – | – | > 123 | – | CC[C@H](C)[C@H](NC(=O)[C@@H](N)C(C)C)C(=O)N[C@@H](C)C(=O)N[C@@H](Cc1ccccc1)C(=O)N[C@@H](C)C(=O)N[C@@H](CCCCN)C(=O)N[C@H](C(=O)N[C@@H](CCCCN)C(=O)N[C@@H](CCC(=O)O)C(=O)N[C@@H](C)C(=O)N[C@@H](CCCCN)C(=O)N[C@@H](C)C(=O)N[C@@H](CCCCN)C(=O)N[C@@H](CC(C)C)C(=O)N[C@@H](CCCCN)C(=O)NCC(=O)N[C@@H](CCC(N)=O)C(=O)N[C@@H](C)C(=O)N[C@@H](CCCCN)C(=O)NCC(=O)O)[C@@H](C)O [VIAFAKTKEAKAKLKGQAKG]

From DBAASP
